In ChEMBL document CHEMBL1201862, “PubChem BioAssay data set” (2004):
Calls of active or inactive are those of the source. No stated cut-off is given here; in the data, actives have a measured IC50 and inactives only a lower limit.

Target: Envelope glycoprotein gp160 (Human immunodeficiency virus 1, UniProt Q6QLK5)
Assay: cell-free HIV fusion peptide-binding blockers – biochemical, uHTS, fluorescence dequenching, […] (AID 1986)

Chain of Envelope glycoprotein gp160 (Q6QLK5 whole entry, the tested form may be a part): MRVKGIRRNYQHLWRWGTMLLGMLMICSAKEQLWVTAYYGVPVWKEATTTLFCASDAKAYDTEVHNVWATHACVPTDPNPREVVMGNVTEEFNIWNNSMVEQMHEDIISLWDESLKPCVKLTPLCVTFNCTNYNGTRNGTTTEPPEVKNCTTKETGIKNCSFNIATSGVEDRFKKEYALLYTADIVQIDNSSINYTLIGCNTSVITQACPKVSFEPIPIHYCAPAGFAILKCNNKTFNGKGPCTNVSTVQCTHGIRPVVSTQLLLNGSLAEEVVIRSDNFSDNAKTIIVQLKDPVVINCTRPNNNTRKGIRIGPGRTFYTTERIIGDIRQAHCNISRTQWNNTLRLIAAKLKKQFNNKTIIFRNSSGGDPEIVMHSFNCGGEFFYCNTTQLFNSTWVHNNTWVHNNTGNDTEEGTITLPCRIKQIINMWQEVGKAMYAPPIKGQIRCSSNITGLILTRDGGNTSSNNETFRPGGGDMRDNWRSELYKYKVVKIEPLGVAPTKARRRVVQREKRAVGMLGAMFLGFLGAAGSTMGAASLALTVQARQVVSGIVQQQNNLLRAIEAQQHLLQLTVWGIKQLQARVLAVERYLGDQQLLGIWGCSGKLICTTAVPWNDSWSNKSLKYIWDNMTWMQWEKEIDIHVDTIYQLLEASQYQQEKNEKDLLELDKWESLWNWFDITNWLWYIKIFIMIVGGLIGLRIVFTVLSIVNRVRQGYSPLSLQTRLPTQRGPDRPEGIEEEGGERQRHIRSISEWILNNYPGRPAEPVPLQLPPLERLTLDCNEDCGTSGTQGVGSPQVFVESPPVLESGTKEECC

COc1ccc(C(=O)Nc2ccccc2C(=O)O)cc1NC(=O)C(c1ccccc1)c1ccccc1
IC50: 14.1 µM (active)

CCOC(=O)c1c(N2C(=O)Nc3cc(Cl)c(Cl)cc3N2O)sc2c1CCCCC2
IC50: 22.3 µM (active)
